Measured values: publication PMC5599477, “Comparative stability of Major Facilitator Superfamily transport proteins” (European Biophysics Journal, 2017)

What was measured:
XylE = target: T1, XylE (Escherichia coli, UniProt P0AGF4); assay: far-UV circular dichroism at […] nm, GuHCl denaturation with ligand; type: binding; settings: 1 mM ligand; 0.35 mg/ml protein; detergent-solubilised; chemical denaturation onset, not an affinity; D/L form not given
T1 construct: 10-His tag (modified pET28a), expressed in E. coli BL21-AI, purified, detergent-solubilised (LacY-WT procedure)
T1 sequence (P0AGF4 1-491): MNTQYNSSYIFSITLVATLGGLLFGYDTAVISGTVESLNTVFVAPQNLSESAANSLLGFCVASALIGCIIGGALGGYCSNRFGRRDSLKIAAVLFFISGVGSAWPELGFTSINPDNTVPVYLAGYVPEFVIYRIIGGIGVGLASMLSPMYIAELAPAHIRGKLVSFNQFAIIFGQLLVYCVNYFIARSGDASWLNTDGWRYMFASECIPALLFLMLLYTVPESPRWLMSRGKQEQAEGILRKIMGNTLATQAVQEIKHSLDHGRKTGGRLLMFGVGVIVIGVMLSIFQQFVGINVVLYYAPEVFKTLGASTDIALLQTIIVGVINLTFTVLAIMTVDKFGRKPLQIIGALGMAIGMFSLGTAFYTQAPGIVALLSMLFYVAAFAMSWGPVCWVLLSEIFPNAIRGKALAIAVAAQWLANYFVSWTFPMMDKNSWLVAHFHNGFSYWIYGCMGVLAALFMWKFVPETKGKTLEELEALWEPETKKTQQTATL

GlpT = target: T2, GlpT (Escherichia coli, UniProt P08194); assay: far-UV circular dichroism at […] nm, urea denaturation with ligand; type: binding; settings: 50 uM ligand; 0.01 mg/ml protein; detergent-solubilised; 50 mM Tris-HCl pH 7.4; chemical denaturation onset, not an affinity
T2 construct: 10-His tag (modified pET28a), expressed in E. coli BL21-AI, purified, detergent-solubilised (LacY-WT procedure, Tris-HCl pH 7.4)
T2 sequence (P08194 1-452): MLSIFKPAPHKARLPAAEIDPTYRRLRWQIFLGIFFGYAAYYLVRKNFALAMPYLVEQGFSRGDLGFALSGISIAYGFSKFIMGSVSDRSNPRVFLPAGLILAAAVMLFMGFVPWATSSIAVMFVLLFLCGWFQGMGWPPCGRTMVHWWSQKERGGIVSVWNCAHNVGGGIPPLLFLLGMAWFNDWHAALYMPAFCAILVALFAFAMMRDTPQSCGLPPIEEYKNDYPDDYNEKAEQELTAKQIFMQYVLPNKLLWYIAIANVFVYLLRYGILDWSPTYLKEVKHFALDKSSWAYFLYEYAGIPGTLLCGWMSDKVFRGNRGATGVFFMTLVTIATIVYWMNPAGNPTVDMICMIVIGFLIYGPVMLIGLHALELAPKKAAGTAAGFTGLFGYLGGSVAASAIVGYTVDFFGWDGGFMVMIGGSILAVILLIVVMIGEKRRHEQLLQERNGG

Compound	Concentration of GuHCl required for unfolding (M) (XylE) [M GuHCl]	Effect of ligand on stability (GlpT) [M urea]
OC1OC[C@@H](O)[C@H](O)[C@H]1O (some centres unmarked) [xylose]	> 5	–
Cc1ncc(COP(=O)(O)O)c(C=O)c1O [pyridoxal-5-phosphate]	–	> 6
